The text below walks through data of US9873918B2, “Treatment of acute myeloid leukemia and myelodysplastic syndromes” (Albert Einstein College of Medicine, Inc., priority 2011, dated 2018).

What all share (test): Colony formation (clonogenic) assay in methylcellulose after lentiviral IL1RAP shRNA knockdown
What all share (assay type): cell-based, human
Conditions in all cases: p<0.05

In one series the test system is OCI-AML3 cells. An excerpt:
(§1) FIG. 18A-18B. IL1RAP knockdown decreases clonogenic potential and leads to increased cell death of AML cells. A) Colony formation assay in semisolid methylcellulose media of AML cells (THP-1, OCI-AML3, HEL, HL-60) infected with control and two IL1RAP-directed shRNAs. Mean and standard deviations are shown. Asterisks indicate statistical significance (p<0.05). B) Analysis of apoptosis/necrosis with Annexin V/DAPI in THP-1 cells infected with control and IL1RAP shRNAs. […] Statistical significance is indicated (* indicate p<0.05).
(§2) For knockdown studies, shRNA template oligonucleotides (Luciferase Control shRNA: 5′-[…]-3′ (SEQ ID NO:3); IL-1RAP shRNA 1: 5′-[…]-3′ (SEQ ID NO:4); IL-1RAP shRNA 2: 5′-[…]-3′) (SEQ ID NO:5) were cloned into the pSIH1-H1-copGFP shRNA vector system (System Biosciences, Mountain View, Calif.). For production of lentiviral particles, lentiviral constructs with packaging vectors were transfected into 293T producer cells using Fugene HD transfection reagent (Roche). Supernatant was harvested after 48 and 72 hours, and concentrated by ultracentrifugation. For knockdown studies, HL60, HEL, OCI-AML3, MOLM-13, THP1 and UT-7 cell lines were transfected with the short-hairpin-containing lentivirus (MOI=10), incubated for 48 or 72 hours. After culture with fresh medium, GFP-positive cells were sorted using a FACS Aria II sorter (BD Biosciences) and used for experiments. Level of knockdown of Il-1RAP was determined by flow cytometry.
(§3) THP1 cells were transduced with these lentiviral shRNAs or with a non-silencing control, and subjected sorted GFP-positive, Annexin V-negative, DAPI-negative cells to clonogenic assays. Knockdown of IL1RAP led to a significant (p<0.05) 94% and 98% inhibition of leukemic colony formation of THP1 cells in comparison to the non-silencing control (FIG. 18A).

A further series deals with HEL cells.
Text: as §1, §2, §3

A further series deals with HL-60 cells.
Text: as §1, §2, §3

“shRNA#2: IL1RAP-directed lentiviral shRNA, template 5′-cgggcattaattgatttcctactatattc-3′ (SEQ ID NO:5), in pSIH1-H1-copGFP vector (DNA CGGGCATTAATTGATTTCCTACTATATTC)”: the values for the reduced clonogenicity with OCI-AML3 cells, in the series with HEL cells and in the series on HL-60 cells were 62%, 81% and 38.5%, respectively.
With “shRNA#1: IL1RAP-directed lentiviral shRNA, template 5′-tggccttactctgatctggtattggacta-3′ (SEQ ID NO:4), in pSIH1-H1-copGFP vector (DNA TGGCCTTACTCTGATCTGGTATTGGACTA)”, the reduced clonogenicity with OCI-AML3 cells was 51.5%; with HEL cells, 69%; with HL-60 cells, 45%.
